The record followed here is patent US20110224079A1, “SPIROHETEROCYCLIC N-OXYAMIDES AS PESTICIDES” (SYNGENTA CROP PROTECTION LLC, priority 2008, published 2011).

Where only a bound is given, the exact number is not on record here.

In experiment [1] the test system is Nilaparvata lugens (brown rice planthopper). Kind of experiment: Example B8: activity against Nilaparvata lugens, sprayed rice seedlings (larvicide, feeding/contact). The following applies: in Oryza sativa, read-out: activity (mortality, growth regulation, effects on F1 generation).
Experiment [2] concerns Tetranychus urticae (two-spotted spider mite). The experiment in a line: Example B4: activity against Tetranychus urticae, sprayed bean leaf discs (feeding/residual contact, preventive). To be noted: foliar, 192 h, read-out: activity (egg, larval and adult mortality).
Experiment [3] has as its system Myzus persicae (green peach aphid). The experiment in a line: Example B17: activity against Myzus persicae on sprayed pepper plants (feeding/residual contact). To be noted: 144 h, infested pepper plants sprayed, 6 days. The experiment is classed as in vivo.
The test system is the same in experiment [4]. The experiment in a line: Example B2: activity against Myzus persicae, pea seedling roots in test solution (systemic/feeding, curative). To be noted: 144 h, read-out: activity (mortality).
For experiment [5] the test system is unchanged. Kind of experiment: Example B1: activity against Myzus persicae, sprayed sunflower leaf discs (feeding/residual contact, preventive). The following applies: foliar, 144 h, read-out: activity (mortality).

In the case of `CCOC(=O)OC1=C(c2c(C)cc(C)cc2C)C(=O)N(OC2CCCC2)C12CCN(OC)CC2` [P1.28], the mortality at 400 ppm in experiment [1] and in experiment [2] was more than 80% each time.

`CCOC(=O)OC1=C(c2c(C)cc(C)cc2C)C(=O)N(OCCCOC)C12CCN(OC)CC2` [P1.44]: the mortality at 200 ppm in experiment [3] was not below 80%. Further, the mortality at 400 ppm in experiment [4], in experiment [5] and in experiment [2] was more than 80% in each case.

In experiment [3], `CCOC(=O)OC1=C(c2cc(C)c(C)cc2C)C(=O)N(OCOC)C12CCN(OC)CC2` [P1.56] showed a mortality at 200 ppm not below 80%. Also, the mortality at 400 ppm in experiment [4], in experiment [5] and in experiment [2] was more than 80% in each case.

As for `CCOC(=O)OC1=C(c2c(C)cc(C)cc2Br)C(=O)N(OC2CCCO2)C12CCN(OC)CC2` (stereo not drawn) [P1.69], the mortality at 200 ppm in experiment [3] was not below 80%. The mortality at 400 ppm in experiment [4], in experiment [5] and in experiment [2] was more than 80% each time.

For `CCOC(=O)OC1=C(c2c(C)cc(C)cc2C)C(=O)N(OC2CCOCC2)C12CCN(OC)CC2` [P1.76], the mortality at 200 ppm in experiment [3] was not below 80%. The mortality at 400 ppm in experiment [4] and in experiment [2] was more than 80% throughout.

Turning to `CCOC(=O)OC1=C(c2c(C)cc(C)cc2C)C(=O)N(OCc2ccoc2)C12CCN(OC)CC2` [P1.77], in experiment [3], the mortality at 200 ppm is not below 80%. The mortality at 400 ppm in experiment [4] and in experiment [2] was more than 80% throughout.

`CCOC(=O)OC1=C(c2c(C)cc(C)cc2C)C(=O)N(OCC2CCCC2)C12CCN(OC)CC2` [P1.83] gave a mortality at 200 ppm in experiment [3] not below 80%. In addition, the mortality at 400 ppm in experiment [4] and in experiment [2] was more than 80% each time.

`CCOC(=O)OC1=C(c2c(C)cc(C)cc2C)C(=O)N(OCC2CCC2)C12CCN(OC)CC2` [P1.106] registered a mortality at 200 ppm in experiment [3] not below 80%. Moreover, the mortality at 400 ppm in experiment [4], in experiment [5] and in experiment [2] was more than 80% each time.

Turning to `CON1CCC2(CC1)C(O)=C(c1c(C)cc(C)cc1C)C(=O)N2OC1CCCC1` [P2.25], the mortality at 400 ppm in experiment [1], in experiment [4], in experiment [5] and in experiment [2] was more than 80% throughout.

For the compound `CON1CCC2(CC1)C(O)=C(c1c(C)cc(C)cc1C)C(=O)N2OC1CCCCO1` (stereo not drawn) [P2.65], in experiment [3], the mortality at 200 ppm is not below 80%. In addition, the mortality at 400 ppm in experiment [4], in experiment [5] and in experiment [2] was more than 80% throughout.

Compound `CON1CCC2(CC1)C(O)=C(c1c(C)cc(C)cc1Br)C(=O)N2OC1CCCO1` (stereo not drawn) [P2.69] had a mortality at 200 ppm in experiment [3] not below 80%. Also, the mortality at 400 ppm in experiment [4], in experiment [5] and in experiment [2] was more than 80% each time.

In turn, `CON1CCC2(CC1)C(O)=C(c1c(C)cc(Br)cc1C)C(=O)N2OC` [P2.79] gave a mortality at 200 ppm in experiment [3] not below 80%. The mortality at 400 ppm in experiment [4] and in experiment [2] was more than 80% throughout.

On to `CON1CCC2(CC1)C(O)=C(c1c(C)cc(C)cc1C)C(=O)N2OCC1CCCC1` [P2.85], for which the mortality at 200 ppm in experiment [3] was not below 80%. In addition, the mortality at 400 ppm in experiment [4], in experiment [5] and in experiment [2] was more than 80% each time.

Regarding `CCC1(CON2C(=O)C(c3c(C)cc(C)cc3C)=C(O)C23CCN(OC)CC3)COC1` [P2.86], in experiment [3], the mortality at 200 ppm is not below 80%. In addition, the mortality at 400 ppm in experiment [5] and in experiment [2] was more than 80% each time.

Regarding `CON1CCC2(CC1)C(O)=C(c1c(C)cc(C)cc1Cl)C(=O)N2OC1CCCO1` (stereo not drawn) [P2.94], the mortality at 200 ppm in experiment [3] is not below 80%. The mortality at 400 ppm in experiment [4], in experiment [5] and in experiment [2] was more than 80% each time.

For `CON1CCC2(CC1)C(O)=C(c1c(C)cc(C)cc1C)C(=O)N2OCC1CCC1` [P2.97], the mortality at 200 ppm in experiment [3] was not below 80%. Moreover, the mortality at 400 ppm in experiment [4], in experiment [5] and in experiment [2] was more than 80% in each case.
